Assay results as given in patent EP3325012B1, “CINEOLE-CONTAINING COMPOSITION FOR TREATING NOSE POLYPS” (Maria Clementine Martin Klosterfrau Vertriebsgesellschaft …, priority 2015, dated 2017).

Key:
[1] = tested on: Patienten mit Polyposis nasi et sinuum; format: in vivo, Mensch
Source text: Im Rahmen einer klinischen Anwendung erhielten 22 Patienten nach einer Nasennebenhöhlenoperation zusätzlich zu einer Standardmedikation 1,8-Cineol (Soledum forte®), 3-mal 1 Kapsel, über einen Zeitraum von 3 Monaten. Die präoperativen CT-Bilder wurden nach dem Lund-Mackay-Score bewertet. Die Patienten wurden gebeten, ihre Beschwerden mittels eines Fragebogens (SNOT20 - German adapted version) einzuschätzen. 21 von 22 Patienten beendeten die Therapie wie vorgesehen. Ein Patient berichtete über gastrointestinale Nebenwirkungen und brach die Behandlung mit 1,8-Cineol ab. […] Somit war ein gutes Ansprechen auf die zusätzliche medikamentöse Behandlung mit 1,8-Cineol bei einem tolerablen Nebenwirkungsprofil zu beobachten.

Phosphokinasen = assay: Human Phospho-Kinase Antibody Array on nasal epithelial cells; format: cell-based, Mensch; settings: 100 µM, 24 Stunden; epithelial cells from nasal polyps compared with epithelial cells from inferior turbinates
Source text: Pflanzliche Medikationen könnten diese Nebenwirkungen reduzieren. In der Naturheilkunde werden ätherische Öle aufgrund ihrer sekretolytischen Eigenschaften zur Behandlung von Menschen eingesetzt, die klinische Verwendung wird jedoch aufgrund von Reizungen der Atemwege nach Inhalation bzw. Aufnahme eingeschränkt. Der Hauptbestandteil von Eukalyptusöl, nämlich 1,8-Cineol, wurde zur Behandlung von akuter und chronischer Bronchitis, Sinusitis und respiratorischen Infekten eingesetzt und allgemein gut vertragen. Bei dem Monoterpen 1,8-Cineol handelt es sich um ein Isoprenoid mit antiinflammatorischen Eigenschaften, welches menschlichen Isoprenoiden, wie Glucocorticoid, ähnelt. Unlängst wurden seitens der Anmelderin neue Eigenschaften des Mechanismus von 1,8-Cineol in Epithelzellen des Nasenpolypengewebes von Patienten mit chronischer Rhinosinusitis entdeckt. Im Rahmen dieser Studien hat die Anmelderin Epithelzellen aus Nasenpolypen und Gewebe der unteren Nasenmuscheln von zahlreichen Patienten isoliert und über einen Zeitraum von 24 Stunden in 100 µM 1,8-Cineol inkubiert. Die Proteine wurden isoliert und die Phosphokinasen mit Hilfe des "Human Phospho-Kinase Antibody Array" von R&D Systems ermittelt. […]

aktivem beta-Catenin = assay: Western blot of active beta-catenin in nasal polyp tissue samples; format: cell-based, Mensch; settings: 100 µM, 24 Stunden incubation, versus medium controls (Figur 3)
Source text: Proben von Nasenpolypen wurden in PBS gewaschen und vorsichtig homogenisiert. Es wurden Zellextrakte hergestellt und unter Verwendung von Lysepuffer 16 ("Human pluripotent stem cell array" (R&D Systems)) solubilisiert. Die Proteinkonzentrationen wurden bestimmt.
Lysate von Geweben wurden durch Erhitzen über einen Zeitraum von 5 Minuten in einfachem SDS-Probenpuffer (Carl Roth GmbH, Karlsruhe, Deutschland) denaturiert. Die Proteinkonzentrationen wurden mittels des Bradford-Tests bestimmt und jeweils 30 µg Gesamtprotein wurden zur SDS-Polyacrylamid-Gel Elektrophorese eingesetzt (Mini-Protean TGX®, Any kD, BioRad, Hercules, CA, USA) und anschließend auf Nitrozellulosemembranen übertragen. Die Übertragung der Proteine wurde mittels Ponceau-Färbung kontrolliert. […]
Um die Beladungsmenge jeder Spur zu bestimmen, wurden die Nitrozellulosemembranen über Nacht bei 4 °C mit einem primären Antikörper der GAPDH (Cell Signaling Technology Inc., Massachusetts, Katalognummer: 14C10) in einer Verdünnung von 1 : 1.000 inkubiert. […] Die Pixeldichten wurden quantifiziert und mittels Fusion FX7® unter Einsatz von Bio-1D Software® dokumentiert. […]

Fibroblastenzelllinie = assay: MTT assay, vitality and proliferation of a fibroblast cell line; format: cell-based; settings: 1 mM bis 10 mM, 250 Stunden
Method: Es wurden weiterführende Untersuchungen durchgeführt zur Analyse des Einflusses von Cineol auf die Vitalität und Proliferation verschiedener permanenter Zelllinien. Hierzu wurden einerseits die zwei HNSCC-Zelllinien und des Weiteren eine Fibroblastenzelllinie verwendet. Diese wurden über einen Zeitraum von 250 Stunden mit verschiedenen Cineol-Konzentrationen kultiviert (1 mM bis 10 mM) und die Vitalität der Zellen wurde jeweils mittels eines MTT-Assays untersucht.

CC12CCC(CC1)C(C)(C)O2 [1,8-Cineol, 1,3,3-Trimethyl-2-oxabicyclo[2.2.2]octan]
SNOT-20-Score ([1]; first orienting evaluation, compared with preoperative results): deutliche Verbesserung | Rezidivpolyposis ([1]; follow-up examination after 6 months): lediglich bei einem Patienten eine beginnende geringfügige Rezidivpolyposis | gastrointestinale Nebenwirkungen ([1]; in vivo): Ein Patient | Expression von Phosphokinasen (Phosphokinasen): veränderte Expression | Expressionslevel von aktivem beta-Catenin (aktivem beta-Catenin): verschwanden aktive beta-Catenin-Proteine fast vollständig | Progression und Vitalität von Fibroblasten (Fibroblastenzelllinie): inhibierender Einfluss
